{"source": "patent US5798375A", "about": "“Treatment of arteriosclerosis and xanthoma” (Sankyo Company, Limited, priority 1995, dated 1998)", "key": {"diabetic animal model": {"test_system": "diabetic animal model", "conditions": "in vivo in a diabetic animal model; cited from earlier work"}, "WHHL rabbits [1]": {"test_system": "WHHL rabbits", "assay": "Example 2: aortic cholesterol content", "assay_type": "in vivo, Male WHHL rabbits", "experimental": "(§1) Each test compound was administered for eight months to the rabbits in the form of an aqueous suspension (0.5% carboxymethylcellulose added). In the control group, a 0.5% carboxymethylcellulose solution only was administered.\nThe aortic cholesterol content was measured The tunica media and tunica intima at the aortic arch and at the thoracic and abdominal aorta were peeled away with tweezers and cut into pieces. The pieces were extracted with a 2:1 by volume mixture of chloroform and methanol.\nThe chloroform phase was separated and evaporated to dryness and the residue was dissolved in isopropanol. The total cholesterol and the free cholesterol were measured by a conventional enzymatic method.\nData are expressed by the mean plus or minus standard error (mg/g tissue). The values in parentheses indicate the percentage against the control. A significant difference against the control group was observed by the unpaired student t-test: […]"}, "WHHL rabbits [2]": {"test_system": "WHHL rabbits", "assay": "Example 2: percentage area covered by lesions, aortic arch and whole aorta", "assay_type": "in vivo, Male WHHL rabbits", "design": "Lesion Area, Aortic Arch, percentage against the control group / Lesion Area, Total Aorta, percentage against the control group: concentration or dose not given beside the values", "conditions": "oral, eight months", "experimental": "as §1\nThe values actually measured are represented by the mean value plus or minus standard error. The numbers in parentheses represent the percentage lesion area against the control group.\n*p<0.05, **p<0.01; significant difference against the control group under the [Mann-Whitney's U-Test A significant difference (p<0.05) was observed between Groups B and F, between Groups C and E and between Groups D and F at the aortic arch, and between Groups C and E over the total aorta."}, "[3]": {"test_system": "Male New Zealand white rabbits", "assay": "Example 3: regression of established atherosclerotic lesions in the cholesterol-fed rabbit model", "assay_type": "in vivo", "experimental": "The rabbits were grouped randomly (3-9 animals per group) and the test samples were administered orally for two months, while they were fed with a normolipidaemic diet. […] The results are shown in terms of the percentage of lesion area in the thoracic aorta."}, "[4]": {"assay": "Example 2: serum cholesterol in WHHL rabbits", "assay_type": "in vivo, Male WHHL rabbits", "conditions": "Groups C and D (pioglitazone 20 mg/kg; Compound A 10 mg/kg)", "experimental": "as §1"}, "WHHL rabbits [5]": {"test_system": "WHHL rabbits", "assay": "Example 2: average thickening of intima in aorta", "assay_type": "in vivo, Male WHHL rabbits", "design": "Average thickening of intima, Aortic Arch, percentage against the control group / Average thickening of intima, Total Aorta, percentage against the control group: concentration or dose not given beside the values", "experimental": "as §1\nThe values actually measured are represented as the mean value plus or minus a standard error (μm). The numbers in parentheses represent the percentage intimal thickening against the control group. A significant difference was observed between Groups D and F at the aortic arch, and between Groups C and E and between Groups D and F over the total aorta (p<0.05) under the Mann-Whitney's U-Test.\nThe average thickening of the intima is calculated by the cross-sectional area of the aortic tunica intima one section from the arch and two sections from the thoracic and abdominal portions, divided by the length of the tunica media."}, "WHHL rabbits [6]": {"test_system": "WHHL rabbits", "assay": "Example 2: incidence and degree of xanthoma of the four legs", "assay_type": "in vivo, Male WHHL rabbits", "design": "Frequency of massive xanthoma: unit not given here", "experimental": "as §1\nThe incidence and the degree of xanthoma of the four legs were measured."}, "[7]": {"conditions": "oral, eight months, control 100 (14/14), *p < 0.05, **p < 0.01 vs control"}}, "data": [{"molecule": "CN(CCOc1ccc(CC2SC(=O)NC2=O)cc1)c1ccccn1", "note": "(stereo not shown) [BRL-49653, 5-{4-[2-methyl-2-(pyridin-2-ylamino)ethoxy]benzyl}-2,4-thiazolidinedione]", "values": [{"measurement": "potency higher than that of troglitazone", "setting": "diabetic animal model", "result": "about 100 times"}]}, {"molecule": "CC(=NOCCOc1ccc(CC2SC(=O)NC2=O)cc1)c1ccc(-c2ccccn2)cc1", "note": "(stereo not shown) [Compound A, 5-(4-{2-[1-(4-2'-pyridyl-phenyl)ethylideneaminooxy]ethoxy}benzyl)thiazolidine-2,4-dione]", "values": [{"measurement": "Cholesterol level of Thoracic and Abdominal Aorta, Esterified", "setting": "WHHL rabbits [1]; mean ± standard error, control 5.3 ± 1.7", "result": "4.9 ± 0.9", "unit": "mg/g tissue"}, {"measurement": "Cholesterol Content of Aortic Arch, Esterified", "setting": "WHHL rabbits [1]; mean ± standard error, control 6.5 ± 1.4, *p < 0.05", "result": "4.5 ± 1.3", "unit": "mg/g tissue"}, {"measurement": "Cholesterol level of Thoracic and Abdominal Aorta, Free", "setting": "WHHL rabbits [1]; mean ± standard error, control 14.8 ± 2.3, *p < 0.05 vs control", "result": "9.2 ± 1.0", "unit": "mg/g tissue"}, {"measurement": "Cholesterol level of Thoracic and Abdominal Aorta, Total", "setting": "WHHL rabbits [1]; mean ± standard error, control 20.1 ± 2.3, *p < 0.05, **p < 0.02 vs control", "result": "14.0 ± 1.7", "unit": "mg/g tissue"}, {"measurement": "Cholesterol Content of Aortic Arch, Free", "setting": "WHHL rabbits [1]; mean ± standard error, control 20.6 ± 2.9", "result": "16.9 ± 1.8", "unit": "mg/g tissue"}, {"measurement": "Cholesterol Content of Aortic Arch, Total", "setting": "WHHL rabbits [1]; mean ± standard error, control 27.1 ± 3.3", "result": "21.4 ± 0.7", "unit": "mg/g tissue"}, {"measurement": "Cholesterol Content of Aortic Arch, Esterified, percentage against the control", "setting": "WHHL rabbits [1]; number in parentheses", "result": 69, "unit": "%"}, {"measurement": "Cholesterol Content of Aortic Arch, Free, percentage against the control", "setting": "WHHL rabbits [1]; number in parentheses", "result": 82, "unit": "%"}, {"measurement": "Cholesterol Content of Aortic Arch, Total, percentage against the control", "setting": "WHHL rabbits [1]; number in parentheses", "result": 79, "unit": "%"}, {"measurement": "Cholesterol level of Thoracic and Abdominal Aorta, Esterified, percentage against the control", "setting": "WHHL rabbits [1]; number in parentheses", "result": 92, "unit": "%"}, {"measurement": "Cholesterol level of Thoracic and Abdominal Aorta, Free, percentage against the control", "setting": "WHHL rabbits [1]; number in parentheses", "result": 62, "unit": "%"}, {"measurement": "Cholesterol level of Thoracic and Abdominal Aorta, Total, percentage against the control", "setting": "WHHL rabbits [1]; number in parentheses", "result": 70, "unit": "%"}, {"measurement": "Lesion Area, Aortic Arch, percentage against the control group", "setting": "WHHL rabbits [2]; number in parentheses", "result": 77, "unit": "%"}, {"measurement": "Lesion Area, Total Aorta, percentage against the control group", "setting": "WHHL rabbits [2]; number in parentheses", "result": 76, "unit": "%"}, {"measurement": "Lesion Area, Total Aorta", "setting": "WHHL rabbits [2]; pravastatin 50, pioglitazone 20, Compound A 10 mg/kg, mean ± standard error, *p<0.05, **p<0.01 vs control", "result": "38 ± 8", "unit": "%"}, {"measurement": "Lesion Area, Aortic Arch", "setting": "WHHL rabbits [2]; pravastatin 50, pioglitazone 20, Compound A 10 mg/kg, mean ± standard error, control 82 ± 5, *p<0.05, **p<0.01 vs control", "result": "63 ± 9", "unit": "%"}, {"measurement": "Rate of lesion area, against the control group", "setting": "[3]; 2.5 mg/kg, figure in parentheses", "result": 93}, {"measurement": "Rate of lesion area", "setting": "[3]; thoracic aorta, 2.5 mg/kg oral, two months, mean ± standard error, control 29 ± 20", "result": "27 ± 7", "unit": "%"}, {"measurement": "reduction of the serum cholesterol levels", "setting": "[4]", "result": "no reduction"}, {"measurement": "suppression of intimal thickening", "setting": "WHHL rabbits [5]; combinations compared with Groups C and D", "result": "no suppression of hypertrophy"}, {"measurement": "Average thickening of intima, Aortic Arch, percentage against the control group", "setting": "WHHL rabbits [5]; number in parentheses", "result": 123, "unit": "%"}, {"measurement": "Average thickening of intima, Total Aorta, percentage against the control group", "setting": "WHHL rabbits [5]; number in parentheses", "result": 105, "unit": "%"}, {"measurement": "Average thickening of intima in aorta, Total Aorta", "setting": "WHHL rabbits [5]; oral, eight months, pravastatin 50, pioglitazone 20, Compound A 10 mg/kg, mean ± standard error, control 154 ± 33", "result": "162 ± 22", "unit": "μm"}, {"measurement": "Average thickening of intima in aorta, Aortic Arch", "setting": "WHHL rabbits [5]; oral, eight months, pravastatin 50, pioglitazone 20, Compound A 10 mg/kg, mean ± standard error, control 237 ± 63", "result": "291 ± 51", "unit": "μm"}, {"measurement": "Frequency of massive xanthoma", "setting": "WHHL rabbits [6]; control 57, *p < 0.05, **p < 0.01 vs control", "result": 21}, {"measurement": "incidence of xanthoma", "setting": "WHHL rabbits [6]; forelegs and hindlegs", "result": "slightly less frequent incidence of xanthoma"}, {"measurement": "Distribution of severity of lesion: (-) no lesions", "setting": "WHHL rabbits [6]; number of legs, control 0", "result": 3}, {"measurement": "Distribution of severity of lesion: (+++) severe lesion", "setting": "WHHL rabbits [6]; number of legs, control 6", "result": 0}, {"measurement": "Distribution of severity of lesion: (++) moderate lesion", "setting": "WHHL rabbits [6]; number of legs, control 10", "result": 6}, {"measurement": "Distribution of severity of lesion: (+) slight lesion", "setting": "WHHL rabbits [6]; number of legs, control 12", "result": 19}, {"measurement": "Incidence of xanthoma, Forelegs", "setting": "WHHL rabbits [6]; [7]", "result": 93, "unit": "%"}, {"measurement": "Incidence of xanthoma, Hindlegs", "setting": "WHHL rabbits [6]; [7]", "result": 86, "unit": "%"}, {"measurement": "Incidence of xanthoma, Total", "setting": "WHHL rabbits [6]; oral, eight months, control 100 (28/28), *p < 0.05, **p < 0.01 vs control", "result": 89, "unit": "%"}]}]}
